The values below come from patent publication US20140005163A1 (NOVARTIS AG, priority 2010, published 2014).

Data set [1] concerns PKB Ser473 phosphorylation in Rat1-myr-HA-p110 beta cells. Put plainly: Reverse protein array assay, PKB Ser473 phosphorylation in Rat1-myr-p110 beta cells. The class given is cell-based. The following applies: 0.5 h, pAkt Ser473, 30 minutes incubation, read-out: p-PKB IC50. The procedure, abridged:
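Lysates were arrayed at four dilutions, and phospho-PKB Ser473 was quantified by relative fluorescence signal. They came from Rat1-myr-HA-p110 alpha, beta or delta cells exposed for 30 min at 37 °C to an 8-point compound series with 0.2% DMSO constant.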

The target in a further data set is T1, PI3K alpha (Homo sapiens, UniProt P42336).
T1 construct: p85(iSH2) fusion partner (see partner chain) (N); His tag (C); made in house; host or cells: baculovirus; Tn5 (Trichoplusia ni) or TiniPro insect cells
Put plainly: PI3K alpha kinase assay (Kinase-Glo luminescence). The format is biochemical. Summed up: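 PI3K alpha at 10 nM with 1 μM ATP and 10 μg/mL phosphatidylinositol in 10 mM TRIS pH 7.5, 3 mM MgCl2, 50 mM NaCl, 0.05% CHAPS, 1 mM DTT, 60 min at room temperature. Remaining ATP read by Kinase-Glo luminescence. IC50 by 4-parameter fit over 8 concentrations.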
(In general: Kinase-Glo measures the ATP left after a reaction by luminescence.)

The nature of the next data set: Solubility at pH 6.8. The class given is physicochemical. The following applies: pH 6.8, aqueous buffer, thermodynamic from solid; read-out: solubility. Summed up:
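Solubility was measured at pH 6.8 following the cited Zhou et al. (2007) procedure.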

pIC50: −log10 of the molar value. ≈ marks a conversion by molar mass, not a printed value. Bounds are passed on as bounds.

T1 sequence (P42336 with tags, fused parts or gaps limits assumed): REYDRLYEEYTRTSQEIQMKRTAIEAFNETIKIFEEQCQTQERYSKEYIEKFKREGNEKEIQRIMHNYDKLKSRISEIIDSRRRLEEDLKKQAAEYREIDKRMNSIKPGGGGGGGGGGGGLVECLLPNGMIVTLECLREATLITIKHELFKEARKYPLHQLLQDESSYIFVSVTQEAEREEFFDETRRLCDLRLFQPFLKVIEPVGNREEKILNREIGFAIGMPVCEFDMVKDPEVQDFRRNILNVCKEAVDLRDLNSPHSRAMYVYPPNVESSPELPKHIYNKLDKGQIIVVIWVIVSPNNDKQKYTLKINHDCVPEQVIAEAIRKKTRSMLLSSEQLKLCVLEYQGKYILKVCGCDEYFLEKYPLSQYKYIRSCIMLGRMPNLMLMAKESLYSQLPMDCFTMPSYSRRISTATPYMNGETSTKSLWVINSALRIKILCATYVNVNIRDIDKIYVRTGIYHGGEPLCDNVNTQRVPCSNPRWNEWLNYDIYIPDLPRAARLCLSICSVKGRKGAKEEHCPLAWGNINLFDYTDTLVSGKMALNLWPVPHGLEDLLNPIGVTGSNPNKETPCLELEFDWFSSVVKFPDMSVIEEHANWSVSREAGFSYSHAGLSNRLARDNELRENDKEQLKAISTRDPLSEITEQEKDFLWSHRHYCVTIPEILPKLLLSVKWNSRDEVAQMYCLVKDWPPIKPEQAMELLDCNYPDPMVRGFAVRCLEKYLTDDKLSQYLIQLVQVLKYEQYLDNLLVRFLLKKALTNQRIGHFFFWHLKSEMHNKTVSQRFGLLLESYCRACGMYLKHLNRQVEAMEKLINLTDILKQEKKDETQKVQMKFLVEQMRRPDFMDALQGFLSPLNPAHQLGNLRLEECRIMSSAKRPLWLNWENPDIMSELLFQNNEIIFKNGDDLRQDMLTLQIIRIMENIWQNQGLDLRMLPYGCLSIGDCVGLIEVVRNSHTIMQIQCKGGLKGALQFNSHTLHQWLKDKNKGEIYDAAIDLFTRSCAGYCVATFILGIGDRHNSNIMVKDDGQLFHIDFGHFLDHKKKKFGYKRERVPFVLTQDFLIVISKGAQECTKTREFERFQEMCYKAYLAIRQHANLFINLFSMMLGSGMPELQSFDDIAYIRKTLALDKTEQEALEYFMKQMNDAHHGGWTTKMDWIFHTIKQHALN

Usually pIC50 stands for the IC50 on a negative log10 scale, so that one unit is a factor of ten. The term solubility denotes the concentration that dissolves in the medium under given conditions. As to `CCNc1cc(-c2ccc3ncc4c(c3c2)n(-c2cn(CC)nc2C)c(=O)n4C)cnc1C` [Example 87.3, 8-(5-Ethylamino-6-methyl-pyridin-3-yl)-1-(1-ethyl-3-methyl-1H-pyrazol-4-yl)-3-methyl-1,3-dihydro-imidazo[4,5-c]quinolin-2-one], the pIC50 in data set [1] is more than 8.30; at PI3K alpha, 8.05. Besides, the solubility in the data set “Solubility at pH 6.8” is more than 442 µg/mL.

Consider `COc1ncc(-c2ccc3ncc4c(c3c2)n(-c2cn(C)nc2Cl)c(=O)n4C)cc1N` [Example 89, 8-(5-Amino-6-methoxy-pyridin-3-yl)-1-(3-chloro-1-methyl-1H-pyrazol-4-yl)-3-methyl-1,3-dihydro-imidazo[4,5-c]quinolin-2-one], for which the figures for the pIC50 (in data set [1]; on PI3K alpha) were more than 8.30 and 7.74, respectively. Also, the solubility in “Solubility at pH 6.8” was determined as 3 µg/mL (≈ 6.88 µM).

In the case of `Cc1nn(C)cc1-n1c(=O)n(C)c2cnc3ccc(-c4ccnc(OC(C)C)c4)cc3c21` [Example 92, 1-(1,3-Dimethyl-1H-pyrazol-4-yl)-8-(2-isopropoxy-pyridin-4-yl)-3-methyl-1,3-dihydro-imidazo[4,5-c]quinolin-2-one], the values for the pIC50 (in data set [1]; on PI3K alpha) were 6.15 and 6.98, respectively. In addition, the solubility in the data set “Solubility at pH 6.8” amounted to 7 µg/mL (≈ 16.3 µM).

Regarding `CCN(C)c1ccc(-c2ccc3ncc4c(c3c2)n(-c2cn(C)nc2C)c(=O)n4C)cn1` [Example 98.1, 1-(1,3-Dimethyl-1H-pyrazol-4-yl)-8-[6-(ethyl-methyl-amino)-pyridin-3-yl]-3-methyl-1,3-dihydro-imidazo[4,5-c]quinolin-2-one], the results for the pIC50 (in data set [1]; on PI3K alpha) were 7.89 and 7.47, respectively. The solubility in “Solubility at pH 6.8” amounted to 8 µg/mL (≈ 18.7 µM).

As to `COC(=O)c1ccc(-c2ccc3ncc4c(c3c2)n(-c2cn(C)nc2C)c(=O)n4C)cn1` [Example 100, 5-[1-(1,3-Dimethyl-1H-pyrazol-4-yl)-3-methyl-2-oxo-2,3-dihydro-1H-imidazo[4,5-c]quinolin-8-yl]-pyridine-2-carboxylic acid methyl ester], the pIC50 in data set [1] was 7.85; at PI3K alpha, 7.74. In addition, the solubility in the data set “Solubility at pH 6.8” is 12 µg/mL (≈ 28 µM).

On to `COCc1ccc(-c2ccc3ncc4c(c3c2)n(-c2cn(C(C)C)nc2C)c(=O)n4C)cn1` [Example 105, 1-(1-Isopropyl-3-methyl-1H-pyrazol-4-yl)-8-(6-methoxymethyl-pyridin-3-yl)-3-methyl-1,3-dihydro-imidazo[4,5-c]quinolin-2-one], for which the negative-log IC50 (pIC50) was 7.39 in data set [1] and 6.96 at PI3K alpha. In “Solubility at pH 6.8”, the solubility is more than 443 µg/mL.

Turning to `Cc1nn(C)cc1-n1c(=O)n(C)c2cnc3ccc(-c4ccc(OCCCO)nc4)cc3c21` [Example 108, 1-(1,3-Dimethyl-1H-pyrazol-4-yl)-8-[6-(3-hydroxy-propoxy)-pyridin-3-yl]-3-methyl-1,3-dihydro-imidazo[4,5-c]quinolin-2-one], the results for the pIC50 (in data set [1]; on PI3K alpha) were 6.89 and 6.88, respectively. Further, the solubility in the data set “Solubility at pH 6.8” came to 32 µg/mL (≈ 72 µM).

Consider `COc1ccc(-c2ccc3ncc4[nH]c(=O)n(-c5cn(C)nc5C)c4c3c2)cn1` [Example 109, 1-(1,3-Dimethyl-1H-pyrazol-4-yl)-8-(6-methoxy-pyridin-3-yl)-1,3-dihydro-imidazo[4,5-c]quinolin-2-one], for which the pIC50 in data set [1] was 7.05; on PI3K alpha, 7.92. In addition, the solubility in “Solubility at pH 6.8” was determined as 3 µg/mL (≈ 7.76 µM).

With `Cc1nn(C)cc1-n1c(=O)n(C)c2cnc3ccc(-c4cnc5c(ccn5C)c4)cc3c21` [Example 116, 1-(1,3-Dimethyl-1H-pyrazol-4-yl)-3-methyl-8-(1-methyl-1H-pyrrolo[2,3-b]pyridin-5-yl)-1,3-dihydro-imidazo[4,5-c]quinolin-2-one], the results for the pIC50 (in data set [1]; at PI3K alpha) were 7.74 and 7.92, respectively. Further, in the data set “Solubility at pH 6.8”, the solubility is 3 µg/mL (≈ 7.08 µM).

As to `CNC(=O)c1cc(-c2ccc3ncc4c(c3c2)n(-c2cn(C)nc2C)c(=O)n4C)cnc1OC` [Example 125.1, 5-[1-(1,3-Dimethyl-1H-pyrazol-4-yl)-3-methyl-2-oxo-2,3-dihydro-1H-imidazo[4,5-c]quinolin-8-yl]-2-methoxy-N-methyl-nicotinamide], the pIC50 in data set [1] was 7.01; at PI3K alpha, 7.55. The solubility in “Solubility at pH 6.8” is 6 µg/mL (≈ 13.1 µM).

For `Cc1nn(C)cc1-n1c(=O)n(C)c2cnc3ccc(-c4ccc(N5CCNCC5)nc4)cc3c21` [Example 126, 1-(1,3-Dimethyl-1H-pyrazol-4-yl)-3-methyl-8-(6-piperazin-1-yl-pyridin-3-yl)-1,3-dihydro-imidazo[4,5-c]quinolin-2-one], the pIC50 in data set [1] was 6.58; at PI3K alpha, 7.29. In “Solubility at pH 6.8”, the solubility is more than 455 µg/mL.

As to `COc1ncc(-c2ccc3ncc4c(c3c2)n(-c2cn(C)nc2C)c(=O)n4C)cc1N` [Example 127, 8-(5-Amino-6-methoxy-pyridin-3-yl)-1-(1,3-dimethyl-1H-pyrazol-4-yl)-3-methyl-1,3-dihydro-imidazo[4,5-c]quinolin-2-one], the results for the negative-log IC50 (pIC50) (in data set [1]; at PI3K alpha) were 8.05 and 7.70, respectively. For the same compound, the solubility in “Solubility at pH 6.8” came to 386 µg/mL (≈ 929 µM).

`Cc1nn(C)cc1-n1c(=O)n(C)c2cnc3ccc(-c4cnc5ccn(C)c5c4)cc3c21` [Example 129, 1-(1,3-Dimethyl-1H-pyrazol-4-yl)-3-methyl-8-(1-methyl-1H-pyrrolo[3,2-b]pyridin-6-yl)-1,3-dihydro-imidazo[4,5-c]quinolin-2-one]: the negative logarithm of the IC50 (pIC50) in data set [1] was 7.80; on PI3K alpha, 7.92. Further, the solubility in the data set “Solubility at pH 6.8” came out at 21 µg/mL (≈ 49.6 µM).

Take `CNc1ncc(-c2ccc3ncc4c(c3c2)n(-c2cn(C(C)C)nc2C)c(=O)n4C)cc1F` [Example 141.3, 8-(5-Fluoro-6-methylamino-pyridin-3-yl)-1-(1-isopropyl-3-methyl-1H-pyrazol-4-yl)-3-methyl-1,3-dihydro-imidazo[4,5-c]quinolin-2-one]: the results for the pIC50 (in data set [1]; on PI3K alpha) were 7.89 and 7.68, respectively. Moreover, the solubility in “Solubility at pH 6.8” was 5 µg/mL (≈ 11.2 µM).

Turning to `Cc1nn(C(C)C)cc1-n1c(=O)n(C)c2cnc3ccc(-c4cnc(N)c(F)c4)cc3c21` [Example 142.3, 8-(6-Amino-5-fluoro-pyridin-3-yl)-1-(1-isopropyl-3-methyl-1H-pyrazol-4-yl)-3-methyl-1,3-dihydro-imidazo[4,5-c]quinolin-2-one], the negative logarithm of the IC50 (pIC50) was 7.72 in data set [1] and 7.60 on PI3K alpha. The solubility in the data set “Solubility at pH 6.8” came out at 5 µg/mL (≈ 11.6 µM).

With `CNc1ncc(-c2ccc3ncc4c(c3c2)n(-c2c(C)nn(C)c2C)c(=O)n4C)cc1C(F)(F)F` [Example 144.1, 3-Methyl-8-(6-methylamino-5-trifluoromethyl-pyridin-3-yl)-1-(1,3,5-trimethyl-1H-pyrazol-4-yl)-1,3-dihydro-imidazo[4,5-c]quinolin-2-one], the results for the pIC50 (in data set [1]; on PI3K alpha) were 7.31 and 7.44, respectively. Besides, the solubility in the data set “Solubility at pH 6.8” is more than 481 µg/mL.

With `Cc1nn(C)c(C)c1-n1c(=O)n(C)c2cnc3ccc(-c4cnc(N)c(Cl)c4)cc3c21` [Example 148.1, 8-(6-Amino-5-chloro-pyridin-3-yl)-3-methyl-1-(1,3,5-trimethyl-1H-pyrazol-4-yl)-1,3-dihydro-imidazo[4,5-c]quinolin-2-one], the pIC50 in data set [1] is 6.86; at PI3K alpha, 7.59. In addition, the solubility in “Solubility at pH 6.8” stood at 92 µg/mL (≈ 212 µM).

Regarding `Cc1nn(C)cc1-n1c(=O)n(C)c2cnc3ccc(-c4cnc(N)c(Cl)c4)cc3c21` [Example 148.2, 8-(6-Amino-5-chloro-pyridin-3-yl)-1-(1,3-dimethyl-1H-pyrazol-4-yl)-3-methyl-1,3-dihydro-imidazo[4,5-c]quinolin-2-one], the results for the pIC50 (in data set [1]; at PI3K alpha) were 8.22 and 7.74, respectively. In the data set “Solubility at pH 6.8”, the solubility was determined as 4 µg/mL (≈ 9.53 µM).
